Laboratory results: patent publication US8263651B2, “Use of cis-epoxyeicosatrienoic acids and inhibitors of soluble epoxide hydrolase to treat conditions mediated by PBR, CB2, and NK2 receptors” (The Regents of the University of California, priority 2006, dated 2012)

Molecular target: T1, sEH (Homo sapiens, UniProt P34913)
T1 sequence (P34913 1-555): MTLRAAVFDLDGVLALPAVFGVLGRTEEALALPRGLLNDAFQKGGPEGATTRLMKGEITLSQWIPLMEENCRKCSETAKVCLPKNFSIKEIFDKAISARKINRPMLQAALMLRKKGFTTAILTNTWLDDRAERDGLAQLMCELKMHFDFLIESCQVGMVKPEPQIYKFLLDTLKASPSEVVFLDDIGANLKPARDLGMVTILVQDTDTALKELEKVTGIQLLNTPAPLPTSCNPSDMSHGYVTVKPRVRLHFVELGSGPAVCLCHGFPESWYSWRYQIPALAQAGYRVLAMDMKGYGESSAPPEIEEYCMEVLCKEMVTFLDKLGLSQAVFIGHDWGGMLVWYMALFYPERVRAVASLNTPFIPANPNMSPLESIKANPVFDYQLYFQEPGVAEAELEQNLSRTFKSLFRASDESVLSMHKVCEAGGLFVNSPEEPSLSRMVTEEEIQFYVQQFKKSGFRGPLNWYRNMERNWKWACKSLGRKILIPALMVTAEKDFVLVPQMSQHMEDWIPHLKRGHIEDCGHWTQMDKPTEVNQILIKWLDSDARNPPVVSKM
Test: sEH inhibition, assay not specified
Assay type: biochemical
Description: Any of a number of standard assays for determining epoxide hydrolase activity can be used to determine inhibition of sEH. For example, suitable assays are described in Gill, et al., Anal Biochem 131:273-282 (1983); and Borhan, et al., Analytical Biochemistry 231:188-200 (1995)). Suitable in vitro assays are described in Zeldin et al., J. Biol. Chem. 268:6402-6407 (1993). Suitable in vivo assays are described in Zeldin et al., Arch Biochem Biophys 330:87-96 (1996). […]
The enzyme also can be detected based on the binding of specific ligands to the catalytic site which either immobilize the enzyme or label it with a probe such as dansyl, fluoracein, luciferase, green fluorescent protein or other reagent. […] The enzyme also can be detected based on the generation of fluorescent products following the hydrolysis of the epoxide. […]

- activity as an inhibitor of sEH: particularly high activity
SMILES: CCCCCCCCCCCCNC(=O)NC12CC3CC(CC(C3)C1)C2 [ADU, N-Adamantyl-N′-dodecyl urea]
